The text below walks through data of patent publication US9907800B2, “Kinase inhibitors and method of treating cancer” (University Health Network, priority 2010, dated 2018).

The target of one experiment is Aurora B (Homo sapiens (Human), UniProt Q96GD4). The experiment in a line: Aurora B inhibition assay (Z-Lyte). The class given is biochemical. As to conditions: read-out: Aurora B IC50 Ranges.
The next experiment addresses human PLK4 (Homo sapiens (Human), UniProt O00444). The experiment in a line: PLK4 inhibition assay (indirect ELISA). The class given is biochemical. As to conditions: read-out: PLK4 IC50 Ranges. (ELISA stands for enzyme-linked immunosorbent assay.)

Where a name gives a salt, the structure may show the parent alone. Where only a bound is given, the exact number is not on record here.

Chain of human PLK4 (O00444 1-391): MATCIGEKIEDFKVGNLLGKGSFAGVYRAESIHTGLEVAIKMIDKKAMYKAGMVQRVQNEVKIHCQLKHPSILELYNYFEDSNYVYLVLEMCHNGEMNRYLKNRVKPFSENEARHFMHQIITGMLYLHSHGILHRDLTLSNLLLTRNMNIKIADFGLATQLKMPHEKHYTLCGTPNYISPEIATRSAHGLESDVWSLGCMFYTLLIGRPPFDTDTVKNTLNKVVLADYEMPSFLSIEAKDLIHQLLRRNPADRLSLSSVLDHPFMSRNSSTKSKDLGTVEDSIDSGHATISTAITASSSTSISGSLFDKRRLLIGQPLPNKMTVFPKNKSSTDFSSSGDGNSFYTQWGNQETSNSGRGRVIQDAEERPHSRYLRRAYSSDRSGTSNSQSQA
Chain of Aurora B (Q96GD4 whole entry): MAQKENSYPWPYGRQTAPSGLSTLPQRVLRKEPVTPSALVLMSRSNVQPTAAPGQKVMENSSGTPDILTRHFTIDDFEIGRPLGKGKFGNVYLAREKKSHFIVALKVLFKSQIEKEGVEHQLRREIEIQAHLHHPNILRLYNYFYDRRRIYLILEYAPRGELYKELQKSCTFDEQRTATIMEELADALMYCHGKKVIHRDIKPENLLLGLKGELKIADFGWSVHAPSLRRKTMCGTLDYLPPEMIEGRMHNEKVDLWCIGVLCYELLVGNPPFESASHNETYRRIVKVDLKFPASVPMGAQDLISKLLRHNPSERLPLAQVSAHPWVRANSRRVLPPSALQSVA
Protocol for Aurora B: Aurora B inhibition was determined using the Z-Lyte assay kit from Invitrogen. […] The % inhibition values were determined according to the manufacturer's directions and IC50 values were obtained using a non-linear 4 point logistic curve fit (XLfit4, IDBS)

As to `CN1C(=O)[C@@]2(C[C@H]2c2ccc3c(/C=C/c4ccc(CN5CCCCC5)cc4)n[nH]c3c2)c2ccccc21` (relative stereo) [Example A95, (1R*,2S*)-(E)-1′-methyl-2-(3-(4-(piperidin-1-ylmethyl)styryl)-1H-indazol-6-yl)spiro[cyclopropane-1,3′-indolin]-2′-one 2,2,2-trifluoroacetate], the half-maximal inhibitory concentration (IC50) on Aurora B and on human PLK4 was below 0.1 µM each time.
As to `CCN1CCN(c2ccc(-c3n[nH]c4cc([C@@H]5C[C@@]56C(=O)Nc5ccc(OC)cc56)ccc34)cc2)CC1` (relative stereo) [Example A98, (1R*,2S*)-2-(3-(4-(4-ethylpiperazin-1-yl)phenyl)-1H-indazol-6-yl)-5′-methoxyspiro[cyclopropane-1,3′-indolin]-2′-one 2,2,2-trifluoroacetate], the IC50 at Aurora B and on human PLK4 was below 0.1 µM throughout.
Take `COc1ccc2c(c1)[C@]1(C[C@H]1c1ccc3c(-c4ccc(N5CCN(C)CC5)nc4)n[nH]c3c1)C(=O)N2C` (relative stereo) [Example A104, (1R*,2S*)-5′-methoxy-1′-methyl-2-(3-(6-(4-methylpiperazin-1-yl)pyridin-3-yl)-1H-indazol-6-yl)spiro[cyclopropane-1,3′-indolin]-2′-one bis(2,2,2-trifluoroacetate)]: the half-maximal inhibitory concentration (IC50) at Aurora B and at human PLK4 was below 0.1 µM throughout.
With `NS(=O)(=O)c1cccc(-c2n[nH]c3cc([C@@H]4C[C@@]45C(=O)Nc4ccccc45)ccc23)c1` (relative stereo) [Example A130, 3-(6-((1R*,2S*)-2′-oxospiro[cyclopropane-1,3′-indoline]-2-yl)-1H-indazol-3-yl)benzenesulfonamide], the results for the half-maximal inhibitory concentration (IC50) on Aurora B and on human PLK4 were 0.1 to 1 µM and below 0.1 µM, respectively.
In the same order, the values of `COc1ccc2c(c1)[C@]1(C[C@H]1c1ccc3c(/C=C/c4cccc(CN5CCOCC5)c4)n[nH]c3c1)C(=O)N2` (relative stereo) [Example A133, (1R*,2S*)-5′-methoxy-2-(3-(3-(morpholinomethyl)styryl)-1H-indazol-6-yl)spiro[cyclopropane-1,3′-indolin]-2′-one 2,2,2-trifluoroacetate] are below 0.1 µM and below 0.1 µM.
In the same order, the values of `COc1ccc2c(c1)[C@]1(C[C@H]1c1ccc3c(/C=C/c4cccc(CN(C)C)c4)n[nH]c3c1)C(=O)N2` (relative stereo) [Example A135, (1R*,2S*)-2-(3-(3-((dimethylamino)methyl)styryl-1H-indazol-6-yl)-5′-methoxyspiro[cyclopropane-1,3′-indolin]-2′-one 2,2,2-trifluoroacetate] are below 0.1 µM and below 0.1 µM.
In the same order, the values of `CCc1ccc2c(c1)[C@]1(C[C@H]1c1ccc3c(-c4ccc(N5CCN(C)CC5)cc4)n[nH]c3c1)C(=O)N2` (relative stereo) [Example A142, (1R*,2S*)-5′-ethyl-2-(3-(4-(4-methylpiperazin-1-yl)phenyl)-1H-indazol-6-yl)spiro[cyclopropane-1,3′-indolin]-2′-one 2,2,2-trifluoroacetate] are below 0.1 µM and below 0.1 µM.
`COc1ccc2c(c1)[C@]1(C[C@H]1c1ccc3c(-c4ccc(CCN5CCOCC5)cc4)n[nH]c3c1)C(=O)N2` (relative stereo) [Example A159, (1R*,2S*)-5′-methoxy-2-(3-(4-(2-morpholinoethyl)phenyl)-1H-indazol-6-yl)spiro[cyclopropane-1,3′-indolin]-2′-one 2,2,2-trifluoroacetate]: the half-inhibitory concentration (IC50) at Aurora B and at human PLK4 was below 0.1 µM in each case.
As for `CN(C)Cc1ccc(/C=C/c2n[nH]c3cc([C@@H]4C[C@@]45C(=O)N(CC(N)=O)c4ccccc45)ccc23)cc1` (relative stereo) [Example A160, 2-((1R*,2S*)-(E)-2-(3-(4-((dimethylamino)methyl)styryl)-1H-indazol-6-yl)-2′-oxospiro[cyclopropane-1,3′-indoline]-1′-yl)acetamide 2,2,2-trifluoroacetate], the IC50 on Aurora B and at human PLK4 was below 0.1 µM each time.
For `Cc1ccc2c(c1)[C@]1(C[C@H]1c1ccc3c(-c4ccc(N5CCN(C)CC5)cc4)n[nH]c3c1)C(=O)N2` (relative stereo) [Example A173, (1R*,2S)-5′-methyl-2-(3-(4-(4-methylpiperazin-1-yl)phenyl)-1H-indazol-6-yl)spiro[cyclopropane-1,3′-indolin]-2′-one 2,2,2-trifluoroacetate], the IC50 on Aurora B and at human PLK4 was below 0.1 µM each time.
Regarding `COc1ccc2c(c1)[C@]1(C[C@H]1c1ccc3c(/C=C/c4ccc(N5CCN(C)CC5)cc4)n[nH]c3c1)C(=O)N2` (relative stereo) [Example A174, (1R*,2S*)-(E)-5′-methoxy-2-(3-(4-(4-methylpiperazin-1-yl)styryl)-1H-indazol-6-yl)spiro[cyclopropane-1,3′-indolin]-2′-one 2,2,2-trifluoroacetate], the 50% inhibitory concentration (IC50) at Aurora B and at human PLK4 was below 0.1 µM each time.
In the case of `COCCN1C(=O)[C@@]2(C[C@H]2c2ccc3c(/C=C/c4ccc(CN(C)C)cc4)n[nH]c3c2)c2ccccc21` (relative stereo) [Example A180, (1R*,2S*)-(E)-2-(3-(4-((dimethylamino)methyl)styryl)-1H-indazol-6-yl)-1′-(2-methoxyethyl)spiro[cyclopropane-1,3′-indolin]-2′-one 2,2,2-trifluoroacetate], the IC50 on Aurora B and at human PLK4 was below 0.1 µM throughout.
Regarding `COc1ccc2c(c1)[C@]1(C[C@H]1c1ccc3c(/C=C/c4csc(CN(C)C)c4)n[nH]c3c1)C(=O)N2` (relative stereo) [Example A181, (1R,2S)-2-(3-((E)-2-(5-((dimethylamino)methyl)thiophen-3-yl)vinyl-1H-indazol-6-yl)-5′-methoxyspiro[cyclopropane-1,3′-indolin]-2′-one 2,2,2-trifluoro acetate], the IC50 at Aurora B and on human PLK4 was below 0.1 µM each time.
`COc1ccc2c(c1)[C@]1(C[C@H]1c1ccc3c(I)n[nH]c3c1)C(=O)N2` [Example A7, (1R,2S)-2-(3-iodo-1H-indazol-6-yl)-5′-methoxyspiro[cyclopropane-1,3′-indolin]-2′-one]: the IC50 (as a rule, the midpoint of a concentration-inhibition curve) at Aurora B was 0.1 to 1 µM; on human PLK4, below 0.1 µM.
In the same order, the values of `COc1ccc2c(c1)[C@@]1(C[C@@H]1c1ccc3c(-c4ccc(N5CCN(C)CC5)nc4)n[nH]c3c1)C(=O)N2` [Example A15, (1S,2R)-5′-methoxy-2-(3-(6-(4-methylpiperazin-1-yl)pyridin-3-yl)-1H-indazol-6-yl)spiro[cyclopropane-1,3′-indolin]-2′-one] are above 1 µM and below 0.1 µM.
In the case of `COc1ccc2c(c1)[C@@]1(C[C@@H]1c1ccc3c(-c4ccc(N5CCNCC5)cc4)n[nH]c3c1)C(=O)N2` [Example A50, (1S,2R)-5′-methoxy-2-(3-(4-(piperazin-1-yl)phenyl)-1H-indazol-6-yl)spiro[cyclopropane-1,3′-indolin]-2′-one 2,2,2-trifluoroacetate], the IC50 on Aurora B and on human PLK4 was below 0.1 µM in each case.
On to `COc1ccc2c(c1)[C@]1(C[C@H]1c1ccc3c(/C=C/c4ccc5c(c4)CN(C)CC5)n[nH]c3c1)C(=O)N2` [Example A64, (1R,2S)-5′-methoxy-2-(3-((E)-2-(2-methyl-1,2,3,4-tetrahydroisoquinolin-7-yl)vinyl)-1H-indazol-6-yl)spiro[cyclopropane-1,3′-indolin]-2′-one 2,2,2-trifluoroacetate salt], for which the IC50 on Aurora B and at human PLK4 was below 0.1 µM each time.
Consider `CN1CCc2ccc(/C=C/c3n[nH]c4cc([C@@H]5C[C@@]56C(=O)Nc5ccccc56)ccc34)cc2C1` [Example A65, (1R,2S)-2-(3-((E)-2-(2-methyl-1,2,3,4-tetrahydroisoquinolin-7-yl)vinyl)-1H-indazol-6-yl)spiro[cyclopropane-1,3′-indolin]-2′-one 2,2,2-trifluoroacetate salt], for which the IC50 at Aurora B and at human PLK4 was below 0.1 µM each time.
Consider `COc1ccc2c(c1)[C@]1(C[C@H]1c1ccc3c(/C=C/c4ccc5c(c4)CNCC5)n[nH]c3c1)C(=O)N2` [Example A66, (1R,2S)-5′-methoxy-2-(3-((E)-2-(1,2,3,4-tetrahydroisoquinolin-7-yl)vinyl)-1H-indazol-6-yl)spiro[cyclopropane-1,3′-indolin]-2′-one 2,2,2-trifluoroacetate salt], for which the half-inhibitory concentration (IC50) at Aurora B and at human PLK4 was below 0.1 µM in each case.
Consider `COc1ccc2c(c1)[C@]1(C[C@H]1c1ccc3c(-c4ccc(OCCN5CCCCC5)cc4)n[nH]c3c1)C(=O)N2` [Example A67, (1R,2S)-5′-methoxy-2-(3-(4-(2-(piperidin-1-yl)ethoxy)phenyl)-1H-indazol-6-yl)spiro[cyclopropane-1,3′-indolin]-2′-one 2,2,2-trifluoroacetate salt], for which the half-inhibitory concentration (IC50) at Aurora B and on human PLK4 was below 0.1 µM throughout.
For the compound `COc1ccc2c(c1)[C@]1(C[C@H]1c1ccc3c(-c4ccc(OCCN(C)C)cc4)n[nH]c3c1)C(=O)N2` [Example A69, (1R,2S)-2-(3-(4-(2-(dimethylamino)ethoxy)phenyl)-1H-indazol-6-yl)-5′-methoxyspiro[cyclopropane-1,3′-indolin]-2′-one 2,2,2-trifluoroacetate salt], the half-maximal inhibitory concentration (IC50) on Aurora B and at human PLK4 was below 0.1 µM each time.
On to `COc1ccc2c(c1)[C@]1(C[C@H]1c1ccc3c(-c4ccc5c(c4)CN(C)CC5)n[nH]c3c1)C(=O)N2` [Example A70, (1R,2S)-5′-methoxy-2-(3-(2-methyl-1,2,3,4-tetrahydroisoquinolin-7-yl)-1H-indazol-6-yl)spiro[cyclopropane-1,3′-indolin]-2′-one 2,2,2-trifluoroacetate salt], for which the IC50 on Aurora B and at human PLK4 was below 0.1 µM throughout.
With `COc1ccc2c(c1)[C@]1(C[C@H]1c1ccc3c(/C=C/c4ccc(CN5CCCOCC5)cc4)n[nH]c3c1)C(=O)N2` [Example A73, (1R,2S)-(E)-2-(3-(4-((1,4-oxazepan-4-yl)methyl)styryl)-1H-indazol-6-yl)-5′-methoxyspiro[cyclopropane-1,3′-indolin]-2′-one 2,2,2-trifluoroacetate salt], the half-maximal inhibitory concentration (IC50) at Aurora B and at human PLK4 was below 0.1 µM each time.
